Consider 82 compounds from the RepoRT retention time repository.

SMILES strings stand for the structures.

A short description of the data set: HILIC, Waters ACQUITY UPLC BEH Amide, 100 × 2.1 mm, 1.7 µm; A: water + 0.125% formic acid + 10 mM ammonium formate; B: 5% water + 95% acetonitrile + 0.125% formic acid + 10 mM ammonium formate; gradient (min/%B) 0/100 2/100 7.7/70 9.5/40 10.25/30 12.75/100 17/100. The settings on record: stereoisomer not certain.
As for `CC(C)(CO)C(O)C(=O)NCCCO` (configuration not stated) [Panthenol], the LC retention time was determined as 1.9 min.

For the compound `CNc1ncnc2c1ncn2C1OC(CO)C(O)C1O` (configuration not stated) [6-Methyladenosine], the LC retention time was 3.56 min.

In the case of `Cc1cc2nc3c(=O)[nH]c(=O)nc-3n(CC(O)C(O)C(O)COP(=O)(O)OP(=O)(O)OCC3OC(n4cnc5c(N)ncnc54)C(O)C3O)c2cc1C` (configuration not stated), the LC retention time is 9.52 min.

As for `CC(O)CC(=O)OC(CC(=O)[O-])C[N+](C)(C)C` (configuration not stated) [3-Hydroxybutyrylcarnitine], the LC retention time stood at 7.62 min.

With `OCC1OC(OCC2OC(O)C(O)C(O)C2O)C(O)C(O)C1O` (configuration not stated) [Isomaltose], the LC retention time was 7.19 min.

Take `CC(=O)NCCc1c[nH]c2ccc(O)cc12` [N-Acetyl-5-hydroxytryptamine]: the LC retention time is 1.43 min.

As to `CC1CNc2c(cccc2S(=O)(=O)NC(CCCN=C(N)N)C(=O)N2CCC(C)CC2C(=O)O)C1` (configuration not stated) [Argatroban], the LC retention time was 5.45 min.

Take `CC(C)(C)NC(=O)C1CC2CCCCC2CN1CC(O)C(Cc1ccccc1)NC(=O)C(CC(N)=O)NC(=O)c1ccc2ccccc2n1` (configuration not stated) [Saquinavir]: the LC retention time was determined as 2.85 min.

On to `CC(C)N=c1cc2n(-c3ccc(Cl)cc3)c3ccccc3nc-2cc1Nc1ccc(Cl)cc1` [Clofazimine], for which the LC retention time worked out at 1.78 min.

In the case of `COc1cc(CNC(=O)CCCCCCC(C)C)ccc1O` [Dihydrocapsaicin], the LC retention time came out at 1.07 min.

With `COc1cc(C(=O)NC2CCCNC2)cc(OC)c1OC` (configuration not stated) [Troxipide], the LC retention time stood at 5.04 min.

Consider `CC(O)C(N)=O` (configuration not stated) [Lactamide], for which the LC retention time was 1.74 min.

Turning to `CCN1CCCC1CNC(=O)c1c(O)c(Cl)cc(Cl)c1OC` (configuration not stated) [Raclopride], the LC retention time was found to be 2.11 min.

For the compound `CC(C)(N)Cc1ccccc1` [Phentermine], the LC retention time turned out to be 6.23 min.

As for `NC(N)=Nc1nc(CSCCC(N)=NS(N)(=O)=O)cs1` [Famotidine], the LC retention time turned out to be 5.59 min.

For `Nc1ccn(C2CC(O)C(CO)O2)c(=O)n1` (configuration not stated) [2'-Deoxycytidine], the LC retention time came to 5.87 min.

Take `NCCc1c[nH]c2ccc(O)cc12` [Serotonin]: the LC retention time was determined as 1.44 min.

In the case of `CC(=O)Nc1ccn(C2OC(CO)C(O)C2O)c(=O)n1` (configuration not stated) [N-Acetylcytidine], the LC retention time worked out at 5.08 min.

In the case of `C=CC(C)(O)CCC=C(C)C` (configuration not stated) [Linalool], the LC retention time amounted to 0.97 min.

As to `O=C(O)CNC(=O)c1ccc(O)cc1` [4-Hydroxyhippuric acid], the LC retention time was 5.86 min.

In the case of `CC(=O)NC(Cc1cnc[nH]1)C(=O)O` (configuration not stated) [N-Acetylhistidine], the LC retention time was determined as 8.07 min.

As for `CC#CC1(O)CCC2C3CCC4=CC(=O)CCC4=C3C(c3ccc(N(C)C)cc3)CC21C` (configuration not stated) [Mifepristone], the LC retention time amounted to 1 min.

`O=C1C(c2c(O)[nH]c3ccccc23)=Nc2ccccc21` [Indarubicin]: the LC retention time was 1.07 min.

Regarding `CN(C)C=O` [N,N-Dimethylformamide], the LC retention time was determined as 1.29 min.

`Cn1cc(C2OC(CO)C(O)C2O)c(=O)[nH]c1=O` (configuration not stated) [1-Methylpseudouridine]: the LC retention time worked out at 4.99 min.

Consider `COc1ccc(CN2CCN(C(c3ccc(F)cc3)c3ccc(F)cc3)CC2)c(OC)c1OC` [Lomerizine], for which the LC retention time turned out to be 1.7 min.

Consider `CN1C(=O)CCC1c1ccc[n+]([O-])c1` [(S)-Cotinine N-oxide], for which the LC retention time came out at 3.87 min.

In the case of `NC(Cc1cnc[nH]1)C(=O)O` (configuration not stated) [Histidine], the LC retention time worked out at 9.48 min.

Turning to `CC(=O)OCC(N)C(=O)O` (configuration not stated) [O-Acetylserine], the LC retention time turned out to be 7.67 min.

For `NCCCC(N)C(=O)O` (configuration not stated) [Ornithine], the LC retention time is 9.6 min.

As for `CC(NC(=O)C(N)C(C)O)C(=O)O` (configuration not stated) [Thr-Ala], the LC retention time was 8.56 min.

For `CN1CCC(=C2c3ccccc3CCc3sccc32)CC1` [Pizotifen], the LC retention time is 2.33 min.

In the case of `Oc1ccc(C=Cc2cc(O)cc(O)c2)cc1` [Resveratrol], the LC retention time was 1.41 min.

As for `CCCC(N)C(=O)O` (configuration not stated) [Norvaline], the LC retention time stood at 4.89 min.

As to `O=C1CN2Cc3c(ccc(Cl)c3Cl)N=C2N1` [Anagrelide], the LC retention time was 1.82 min.

On to `NC(=O)NC(CCC(=O)O)C(=O)O` (configuration not stated) [Ureidoglutaric acid], for which the LC retention time was 7.8 min.

Regarding `c1ccc(C2CN3CCSC3=N2)cc1` (configuration not stated) [Levamisole], the LC retention time came to 2.95 min.

For the compound `CC1OC(OC2C(CO)OC(OC3C(CO)OC(O)C(O)C3O)C(O)C2O)C(O)C(O)C1NC1C=C(CO)C(O)C(O)C1O` (configuration not stated) [Acarbose], the LC retention time is 9.88 min.

`NC1CCN(c2nc3c(cc2F)c(=O)c(C(=O)O)cn3-c2ccc(F)cc2F)C1` (configuration not stated) [Tosufloxacin]: the LC retention time stood at 4.87 min.

Take `CN1C(=O)CCC1c1cccnc1` (configuration not stated) [Cotinine]: the LC retention time was 1.49 min.

Regarding `NCC1CCC(C(=O)Oc2ccc(CCC(=O)O)cc2)CC1` (configuration not stated) [Cetraxate], the LC retention time came to 5.29 min.

For the compound `O=C(O)c1ccc[nH]1` [Pyrrole-2-carboxylic acid], the LC retention time amounted to 5.66 min.

Regarding `O=C(O)CC(O)CC(O)C=Cc1c(C2CC2)nc2ccccc2c1-c1ccc(F)cc1` (configuration not stated) [Pitavastatin], the LC retention time was 1.36 min.

Consider `CC(C)CC(NC(=O)OCc1ccccc1)C(=O)O` (configuration not stated) [N-Carbobenzyloxyleucine], for which the LC retention time came out at 1.28 min.

With `CCCCCN=C(N)NN=Cc1c[nH]c2ccc(OC)cc12` [Tegaserod], the LC retention time was found to be 2.84 min.

For `NC(=O)N1c2ccccc2CC(=O)c2ccccc21` [Trileptal], the LC retention time turned out to be 1.13 min.

For `C[N+](C)(C)CC(=O)[O-]` [Betaine], the LC retention time was determined as 7.24 min.

In the case of `NCCOP(=O)(O)O` [O-Phosphocolamine], the LC retention time was determined as 9.23 min.

As to `CN(C)c1ccc(N=Nc2ccccc2)cc1` [p-(Dimethylamino)azobenzene [methyl yellow]], the LC retention time worked out at 0.93 min.

Take `CCOC(=O)C1C(OC(=O)c2ccccc2)CC2CCC1N2C` (configuration not stated) [Cocaethylene]: the LC retention time was 2.12 min.

For the compound `CC(=O)CCCCn1c(=O)c2c(ncn2C)n(C)c1=O` [Pentoxifylline], the LC retention time worked out at 1.09 min.

For `O=C(O)CC1C(=O)Nc2ccccc21` (configuration not stated) [(2-oxo-2,3-dihydro-1H-indol-3-yl)acetic acid], the LC retention time was 2.02 min.

Turning to `Nc1nc2c(ncn2C2CC(O)C(CO)O2)c(=O)[nH]1` (configuration not stated) [2'-Deoxyguanosine], the LC retention time was 6.4 min.

Turning to `CC=C1C2C=C(C)CC1(N)c1ccc(=O)[nH]c1C2` (configuration not stated) [Huperzine], the LC retention time is 5.74 min.

Regarding `CC(C)NCC(O)c1ccc(NS(C)(=O)=O)cc1` (configuration not stated) [Sotalol], the LC retention time was found to be 4.87 min.

Consider `CC(=O)OCC[C@H](N)C(=O)O` [O-Acetyl-L-homoserine], for which the LC retention time came out at 7.6 min.

Consider `NC(=O)CCC(NC(=O)Cc1ccccc1)C(=O)O` (configuration not stated) [Phenylacetylglutamine], for which the LC retention time was determined as 6.03 min.

Turning to `NC(=O)c1cccnc1` [Nicotinamide], the LC retention time worked out at 1.7 min.

Take `CC12CCC(=O)C=C1CCC1C2C(O)CC2(C)C(C(=O)CO)CCC12` (configuration not stated) [Corticosterone]: the LC retention time came to 1.25 min.

Take `CNCCCCC(N)C(=O)O` (configuration not stated) [N-Methyllysine]: the LC retention time is 9.36 min.

In the case of `O=c1[nH]c(=O)c2nccnc2[nH]1` [Lumazine], the LC retention time amounted to 2.49 min.

Consider `O=Cc1cccc(O)c1` [3-Hydroxybenzaldehyde], for which the LC retention time is 1.18 min.

On to `CC(C)C(N)C(=O)O` (configuration not stated) [Valine], for which the LC retention time was determined as 7.24 min.

Turning to `Nc1ccn(C2CC(O)C(COP(=O)(O)O)O2)c(=O)n1` (configuration not stated) [2-Deoxycytidine-5-monophosphoric acid], the LC retention time was determined as 9.16 min.

`NC(CSSCC(N)C(=O)O)C(=O)O` (configuration not stated) [Cystine]: the LC retention time came out at 9.97 min.

Turning to `O=c1ccn(C2OC(CO)CC2O)c(=O)[nH]1` (configuration not stated) [3-Deoxyuridine], the LC retention time worked out at 2.87 min.

For `O=c1[nH]c(=O)c2ncn(C3OC(CO)C(O)C3O)c2[nH]1` (configuration not stated) [Xanthosine], the LC retention time was 7.3 min.

Take `Nc1ccn(C2OC(COP(=O)(O)O)C(O)C2O)c(=O)n1` (configuration not stated) [Cytidine-5'-monophosphate]: the LC retention time is 9.48 min.

For the compound `O=C(O)c1cccnc1C(=O)O` [Quinolinic acid], the LC retention time amounted to 2.16 min.

As to `COC1C(O)C(CO)OC1n1ccc(N)nc1=O` (configuration not stated) [2'-O-Methylcytidine], the LC retention time was found to be 5.02 min.

As for `CC(N=C(NC#N)Nc1ccncc1)C(C)(C)C` (configuration not stated) [Pinacidil], the LC retention time stood at 1.49 min.

As to `Cc1ccc(O)c(C(CCN(C(C)C)C(C)C)c2ccccc2)c1` (configuration not stated) [Tolterodine], the LC retention time was determined as 2.13 min.

For `CCCCCCCCO` [Octanol], the LC retention time is 8.47 min.

As for `O=c1ccn(C2CC(O)C(COP(=O)(O)O)O2)c(=O)[nH]1` (configuration not stated) [Deoxyuridine monophosphate], the LC retention time was determined as 8.25 min.

Regarding `CC(=O)NC(CCCN)C(=O)O` [N-alpha-Acetyl-L-ornithine], the LC retention time was determined as 8.31 min.

`O=C(O)C(O)Cc1c[nH]c2ccccc12` (configuration not stated) [Indolelactic acid]: the LC retention time is 2.25 min.

Consider `Nc1nc(Cl)nc2c1ncn2C1CC(O)C(CO)O1` (configuration not stated) [Cladribine], for which the LC retention time was 1.95 min.

In the case of `NC(CC(=O)O)C(=O)NC(Cc1ccccc1)C(=O)O` (configuration not stated) [Asp-Phe], the LC retention time is 8.14 min.

In the case of `CCCC(=O)NCC(=O)O` [Butyrylglycine], the LC retention time turned out to be 3.73 min.

Consider `Cn1c(=O)[nH]c2ncn(C)c2c1=O` [1,7-Dimethylxanthine], for which the LC retention time was found to be 1.69 min.

Take `COC(=O)C1C(OC(=O)c2ccccc2)CC2CCC1N2C` (configuration not stated) [Cocaine]: the LC retention time came out at 2.2 min.

Turning to `CN1CC(=O)N2C(Cc3c([nH]c4ccccc34)C2c2ccc3c(c2)OCO3)C1=O` (configuration not stated) [Taldalafil], the LC retention time stood at 1.19 min.
